Measured values as given in US10766869B2, “Triazoles for the treatment of demyelinating dieases” (Vertex Pharmaceuticals Incorporated, priority 2015, dated 2020).
Read-outs that look alike come from different tables or passages of the source.

Test system: primary rat mixed cortical cells
Test: In vitro myelination assay (MBP positive myelin strands, fold myelin pixels above background)
Type: cell-based
Details: Rattus norvegicus; for fold induction at 1 µM: 1.0 μM compound; for fold induction at 10 µM: 10.0 μM compound
In short: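 P1 rat cortical cells (neurons, OPCs, oligodendrocytes, astrocytes, microglia) were cultured 14 days at 37 °C with compound, with half-medium changes containing 1× compound on days 6 and 10. Fixed cells were immunostained for MBP and imaged at 10×. Total MBP myelin pixels per well were expressed as fold above no-compound baseline at 1.0 μM and 10.0 μM.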

[1] = relative to baseline of no added compound, read-out: Fold myelin pixels above background, 1.0 μM
[2] = relative to baseline of no added compound, read-out: Fold myelin pixels above background, 10.0 μM
[3] = read-out: Fold myelin pixels above background relative to baseline of no added compound
[4] = relative to baseline of no added compound, read-out: Fold myelin pixels above background

SMILES | fold induction at 1 µM [3] | fold induction at 10 µM [3] | fold induction at 1 µM [4] | fold induction at 10 µM [4] | also measured
CN1CCN(c2cc(F)cc(Nc3ncn(-c4cccc(F)c4)n3)c2)CC1 [Compound 203, N-[3-fluoro-5-(4-methylpiperazin-1-yl)phenyl]-1-(3-fluorophenyl)-1,2,4-triazol-3-amine] |  |  |  |  | fold induction at 1 µM [1]: 100 to 1000; fold induction at 10 µM [2]: ≤ 1
Cc1c(Nc2ncn(-c3ccccn3)n2)cc(N2CC(N3CCOCC3)C2)cc1OC(C)C [Compound 811, N-[3-isopropoxy-2-methyl-5-(3-morpholinoazetidin-1-yl)phenyl]-1-(2-pyridyl)-1,2,4-triazol-3-amine] | 1 to 10 | 10 to 100 |  |  | 
Cc1cc(Nc2ncn(-c3ccccc3)n2)cc(N2CCN(CC(F)(F)F)CC2)c1 [Compound 398, N-[3-methyl-5-[4-(2,2,2-trifluoroethyl)piperazin-1-yl]phenyl]-1-phenyl-1,2,4-triazol-3-amine] |  |  | 1000 to 10000 | 100 to 1000 | 
Cc1cc(Nc2ncn(-c3cc(F)cc(F)c3)n2)cc(N2CCNC(C(F)(F)F)C2)c1 (stereo not drawn) [Compound 552, 1-(3,5-difluorophenyl)-N-[3-methyl-5-[3-(trifluoromethyl)piperazin-1-yl]phenyl]-1,2,4-triazol-3-amine] |  |  | 10 to 100 | 10 to 100 | 
Cc1cc(Nc2ncn(-c3cc(F)cc(F)c3)n2)cc(C2CN(C3COC3)CCO2)c1 (stereo not drawn) [Compound 581, 1-(3,5-difluorophenyl)-N-[3-methyl-5-[4-(oxetan-3-yl)morpholin-2-yl]phenyl]-1,2,4-triazol-3-amine] |  |  | 10 to 100 | ≤ 1 | 
Cc1cc(Nc2ncn(-c3cc(F)cc(F)c3)n2)nc(N2CC(C#N)C2)c1 [Compound 821, 1-[6-[[1-(3,5-difluorophenyl)-1,2,4-triazol-3-yl]amino]-4-methyl-2-pyridyl]azetidine-3-carbonitrile] | ≤ 1 | 10 to 100 |  |  | 
Cc1cc(Nc2ncn(-c3cccc(F)c3)n2)cc(C2CN(C3COC3)C2)c1 [Compound 36, 1-(3-fluorophenyl)-N-[3-methyl-5-[1-(oxetan-3-yl)azetidin-3-yl]phenyl]-1,2,4-triazol-3-amine] |  |  |  |  | fold induction at 1 µM [1]: 1000 to 10000; fold induction at 10 µM [2]: ≤ 1
Cc1cc(NCCN2CCOCC2)cc(Nc2ncn(-c3cc(F)cc(F)c3)n2)c1 [Compound 858, N1-[1-(3,5-difluorophenyl)-1,2,4-triazol-3-yl]-5-methyl-N3-(2-morpholinoethyl)benzene-1,3-diamine] | 10 to 100 | ≤ 1 |  |  | 
Cc1cc(Nc2ncn(-c3ccc(C#N)cc3)n2)cc(N2CCN(C3COC3)CC2)c1 [Compound 687, 4-[3-[3-methyl-5-[4-(oxetan-3-yl)piperazin-1-yl]anilino]-1,2,4-triazol-1-yl]benzonitrile] |  |  | 1 to 10 | 1 to 10 | 
Cc1cc(Nc2ncn(-c3ccccn3)n2)cc(C2CCCN(C3COC3)C2)c1 (stereo not drawn) [Compound 207, N-[3-methyl-5-[1-(oxetan-3-yl)-3-piperidyl]phenyl]-1-(2-pyridyl)-1,2,4-triazol-3-amine] |  |  |  |  | fold induction at 1 µM [1]: 10 to 100; fold induction at 10 µM [2]: ≤ 1
CNC(=O)c1cc(Nc2ncn(-c3ccc(F)c(F)c3)n2)nc(N2CCN(C3COC3)CC2)c1 [Compound 789, 2-[[1-(3,4-difluorophenyl)-1,2,4-triazol-3-yl]amino]-N-methyl-6-[4-(oxetan-3-yl)piperazin-1-yl]pyridine-4-carboxamide] | 1 to 10 | ≤ 1 |  |  | 
Cc1cc(Nc2ncn(-c3cc(F)cc(C(F)(F)F)c3)n2)cc(N2CCN(C3COC3)CC2)c1 [Compound 757, 1-[3-fluoro-5-(trifluoromethyl)phenyl]-N-[3-methyl-5-[4-(oxetan-3-yl)piperazin-1-yl]phenyl]-1,2,4-triazol-3-amine] |  |  | 10 to 100 | 10 to 100 | 
Cc1cc(Nc2ncn(-c3ccc(F)cc3)n2)cc(N2CCN(C3COC3)CC2)c1 [Compound 622, 1-(4-fluorophenyl)-N-[3-methyl-5-[4-(oxetan-3-yl)piperazin-1-yl]phenyl]-1,2,4-triazol-3-amine] |  |  | 1 to 10 | 1 to 10 | 
Fc1cc(F)cc(-n2cnc(Nc3cc(C4CC4)cc(N4CCN(C5COC5)CC4)c3)n2)c1 [Compound 389, N-(3-cyclopropyl-5-(4-(oxetan-3-yl)piperazin-1-yl)phenyl)-1-(3,5-difluorophenyl)-1H-1,2,4-triazol-3-amine] |  |  | 1000 to 10000 | ≤ 1 | 
Cc1cc(Nc2ncn(-c3cc(F)cc(F)c3)n2)nc(N2CCNCC2)c1 [Compound 529, N-[1-(3,5-difluorophenyl)-1,2,4-triazol-3-yl]-4-methyl-6-piperazin-1-yl-pyridin-2-amine] |  |  | 1 to 10 | ≤ 1 | 
Cc1cc(Nc2ncn(-c3ccc(F)c(F)c3)n2)cc(N2CC3(C2)CN(C(C)C)C3)c1 [Compound 977, 1-(3,4-difluorophenyl)-N-[3-(2-isopropyl-2,6-diazaspiro[3.3]heptan-6-yl)-5-methyl-phenyl]-1,2,4-triazol-3-amine] | 1 to 10 | ≤ 1 |  |  | 
Cc1cc(Nc2ncn(-c3cc(F)cc(F)c3)n2)cc(N2CCC(N(C)CCO)CC2)c1 [Compound 1015, 2-[[1-[3-[[1-(3,5-difluorophenyl)-1,2,4-triazol-3-yl]amino]-5-methyl-phenyl]-4-piperidyl]-methyl-amino]ethanol] | ≤ 1 | ≤ 1 |  |  | 
Cc1cc(Nc2ncn(-c3cc(F)cc(N4CCC(CO)C4)c3)n2)cc(N2CCN(C3COC3)CC2)c1 (stereo not drawn) [Compound 480, [1-[3-fluoro-5-[3-[3-methyl-5-[4-(oxetan-3-yl)piperazin-1-yl]anilino]-1,2,4-triazol-1-yl]phenyl]pyrrolidin-3-yl]methanol] |  |  | 10 to 100 | ≤ 1 | 
Fc1cc(Nc2ncn(-c3ccccc3F)n2)cc(N2CCCC2)c1 [Compound 83, 1-(2-fluorophenyl)-N-(3-fluoro-5-pyrrolidin-1-yl-phenyl)-1,2,4-triazol-3-amine] |  |  |  |  | fold induction at 1 µM [1]: ≤ 1; fold induction at 10 µM [2]: 10 to 100
Fc1cc(F)cc(-n2cnc(Nc3cc(C(F)(F)F)cc(N4CCOCC4)n3)n2)c1 [Compound 674, N-[1-(3,5-difluorophenyl)-1,2,4-triazol-3-yl]-6-morpholino-4-(trifluoromethyl)pyridin-2-amine] |  |  | 1 to 10 | 1 to 10 | 
Cc1cc(Nc2ncn(-c3cc(F)cc(F)c3)n2)cc(N2C[C@H]3C[C@@H]2CN3C)c1 [Compound 459, 1-(3,5-difluorophenyl)-N-[3-methyl-5-[(1R,4R)-5-methyl-2,5-diazabicyclo[2.2.1]heptan-2-yl]phenyl]-1,2,4-triazol-3-amine] |  |  | 10 to 100 | ≤ 1 | 
Cc1cc(Nc2ncn(-c3ccccc3)n2)cc(N2CCN(CC3(C)COC3)CC2)c1 [Compound 431, N-[3-methyl-5-[4-[(3-methyloxetan-3-yl)methyl]piperazin-1-yl]phenyl]-1-phenyl-1,2,4-triazol-3-amine] |  |  | 1 to 10 | ≤ 1 | 
Cc1cc(Nc2ncn(-c3cncc(F)c3)n2)cc(N2CCCC2)c1 [Compound 320, 1-(5-fluoro-3-pyridyl)-N-(3-methyl-5-pyrrolidin-1-yl-phenyl)-1,2,4-triazol-3-amine] |  |  |  |  | fold induction at 1 µM [1]: 10 to 100; fold induction at 10 µM [2]: 100 to 1000
Cc1cc(Nc2ncn(-c3cccc(C(F)F)c3)n2)cc(N2CC(N3CCOCC3)C2)c1 [Compound 595, 1-[3-(difluoromethyl)phenyl]-N-[3-methyl-5-(3-morpholinoazetidin-1-yl)phenyl]-1,2,4-triazol-3-amine] |  |  | 1 to 10 | ≤ 1 | 
Cc1cc(Nc2ncn(-c3ccc(F)c(C)c3)n2)cc(N2CCN(C3COC3)CC2)c1 [Compound 780, 1-(4-fluoro-3-methyl-phenyl)-N-[3-methyl-5-[4-(oxetan-3-yl)piperazin-1-yl]phenyl]-1,2,4-triazol-3-amine] |  |  | 1 to 10 | 1 to 10 | 
Cc1cc(Nc2ncn(-c3cc(F)cc(F)c3)n2)cc(N2CCC3(CCCO3)CC2)c1 [Compound 851, 1-(3,5-difluorophenyl)-N-[3-methyl-5-(1-oxa-8-azaspiro[4.5]decan-8-yl)phenyl]-1,2,4-triazol-3-amine] | 1 to 10 | 10 to 100 |  |  | 
Fc1cc(-n2cnc(Nc3cc(C(F)F)cc(N4CCN(C5COC5)CC4)n3)n2)ccc1Cl [Compound 621, N-[1-(4-chloro-3-fluoro-phenyl)-1,2,4-triazol-3-yl]-4-(difluoromethyl)-6-[4-(oxetan-3-yl)piperazin-1-yl]pyridin-2-amine] |  |  | 10 to 100 | 1 to 10 | 
Cc1cc(NC2CCOC2)cc(Nc2ncn(-c3cc(F)cc(F)c3)n2)c1F (stereo not drawn) [Compound 953, N3-[1-(3,5-difluorophenyl)-1,2,4-triazol-3-yl]-4-fluoro-5-methyl-N1-tetrahydrofuran-3-yl-benzene-1,3-diamine] | 1 to 10 | 1 to 10 |  |  | 
Cc1cc(Nc2ncn(-c3ccccc3)n2)cc(Nc2ncc(C)s2)c1 [Compound 588, 5-methyl-N1-(5-methylthiazol-2-yl)-N3-(1-phenyl-1,2,4-triazol-3-yl)benzene-1,3-diamine] |  |  | 10 to 100 | ≤ 1 | 
CCC1COC(C)CN1CCNc1cc(C)cc(Nc2ncn(-c3cc(F)cc(F)c3)n2)c1 (stereo not drawn) [Compound 974, N3-[1-(3,5-difluorophenyl)-1,2,4-triazol-3-yl]-N1-[2-(5-ethyl-2-methyl-morpholin-4-yl)ethyl]-5-methyl-benzene-1,3-diamine] | 10 to 100 | ≤ 1 |  |  | 
